From PubChem BioAssay (NCI)
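Test compounds were applied to cells in 96-well plates for 48 hours at 5 doses. GI50 = concentration required for 50% inhibition of growth. TGI: concentration producing complete growth inhibition.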

Tests used:
Assay in all cases: NCI-60 cell line screen, 48 h
HL-60(TB) leukemia = test system: HL-60(TB) leukemia
MDA-MB-231 breast = test system: MDA-MB-231 breast
DU-145 prostate = test system: DU-145 prostate
SF-268 CNS = test system: SF-268 CNS
HOP-92 NSCLC = test system: HOP-92 NSCLC
HCT-116 colon = test system: HCT-116 colon
UACC-62 melanoma = test system: UACC-62 melanoma
SK-MEL-2 melanoma = test system: SK-MEL-2 melanoma
HT29 colon = test system: HT29 colon
SF-539 CNS = test system: SF-539 CNS
EKVX NSCLC = test system: EKVX NSCLC
OVCAR-4 ovarian = test system: OVCAR-4 ovarian
T-47D breast = test system: T-47D breast
SF-295 CNS = test system: SF-295 CNS
CCRF-CEM leukemia = test system: CCRF-CEM leukemia
MDA-MB-435 = test system: MDA-MB-435
RXF 393 renal = test system: RXF 393 renal
CAKI-1 renal = test system: CAKI-1 renal
OVCAR-8 ovarian = test system: OVCAR-8 ovarian
SK-MEL-5 melanoma = test system: SK-MEL-5 melanoma
SNB-75 CNS = test system: SNB-75 CNS
OVCAR-5 ovarian = test system: OVCAR-5 ovarian
MCF7 breast = test system: MCF7 breast
NCI-H522 lung = test system: NCI-H522 lung
K-562 leukemia = test system: K-562 leukemia
NCI-H23 lung = test system: NCI-H23 lung
TK-10 renal = test system: TK-10 renal
HCC-2998 colon = test system: HCC-2998 colon
SNB-19 CNS = test system: SNB-19 CNS
A498 renal = test system: A498 renal
UO-31 renal = test system: UO-31 renal
KM12 colon = test system: KM12 colon
A549 NSCLC = test system: A549 NSCLC
NCI-H226 lung = test system: NCI-H226 lung
MALME-3M melanoma = test system: MALME-3M melanoma
COLO 205 colon = test system: COLO 205 colon
UACC-257 melanoma = test system: UACC-257 melanoma
786-0 renal = test system: 786-0 renal
MOLT-4 leukemia = test system: MOLT-4 leukemia
RPMI-8226 leukemia = test system: RPMI-8226 leukemia
PC-3 prostate = test system: PC-3 prostate
HS 578T breast = test system: HS 578T breast
SW-620 colon = test system: SW-620 colon
U251 CNS = test system: U251 CNS
LOX IMVI melanoma = test system: LOX IMVI melanoma
SK-OV-3 ovarian = test system: SK-OV-3 ovarian
HCT-15 colon = test system: HCT-15 colon
M14 melanoma = test system: M14 melanoma
HOP-62 NSCLC = test system: HOP-62 NSCLC
SR leukemia = test system: SR leukemia
SK-MEL-28 melanoma = test system: SK-MEL-28 melanoma
SN12C renal = test system: SN12C renal
NCI/ADR-RES ovarian = test system: NCI/ADR-RES ovarian
BT-549 breast = test system: BT-549 breast
IGROV1 ovarian = test system: IGROV1 ovarian
ACHN renal = test system: ACHN renal
NCI-H460 lung = test system: NCI-H460 lung
OVCAR-3 ovarian = test system: OVCAR-3 ovarian

Compound: C#C[C@@]1(O)[C@@H](CO)O[C@@H](n2cc(Br)c3c(Cl)ccnc32)[C@@H]1O
- GI50 (HL-60(TB) leukemia): 1030 nM
- TGI (HL-60(TB) leukemia): 3690 nM
- GI50 (MDA-MB-231 breast): 289 nM
- TGI (MDA-MB-231 breast): 1940 nM
- GI50 (DU-145 prostate): 454 nM
- TGI (DU-145 prostate): 4790 nM
- GI50 (SF-268 CNS): 10500 nM
- TGI (SF-268 CNS): > 100000 nM
- GI50 (HOP-92 NSCLC): 115 nM
- TGI (HOP-92 NSCLC): 916 nM
- GI50 (HCT-116 colon): 859 nM
- TGI (HCT-116 colon): > 100000 nM
- GI50 (UACC-62 melanoma): 15600 nM
- TGI (UACC-62 melanoma): > 100000 nM
- GI50 (SK-MEL-2 melanoma): 35200 nM
- TGI (SK-MEL-2 melanoma): > 100000 nM
- GI50 (HT29 colon): 964 nM
- TGI (HT29 colon): > 100000 nM
- GI50 (SF-539 CNS): 357 nM
- TGI (SF-539 CNS): 11100 nM
- GI50 (EKVX NSCLC): 17300 nM
- TGI (EKVX NSCLC): > 100000 nM
- GI50 (OVCAR-4 ovarian): 677 nM
- TGI (OVCAR-4 ovarian): > 100000 nM
- GI50 (T-47D breast): 394 nM
- TGI (T-47D breast): > 19900 nM
- GI50 (SF-295 CNS): 1030 nM
- TGI (SF-295 CNS): > 100000 nM
- GI50 (CCRF-CEM leukemia): 386 nM
- TGI (CCRF-CEM leukemia): > 100000 nM
- GI50 (MDA-MB-435): 8060 nM
- TGI (MDA-MB-435): > 100000 nM
- GI50 (RXF 393 renal): 283 nM
- TGI (RXF 393 renal): 1230 nM
- GI50 (CAKI-1 renal): 602 nM
- TGI (CAKI-1 renal): > 100000 nM
- GI50 (OVCAR-8 ovarian): 343 nM
- TGI (OVCAR-8 ovarian): 1910 nM
- GI50 (SK-MEL-5 melanoma): 39700 nM
- TGI (SK-MEL-5 melanoma): > 100000 nM
- GI50 (SNB-75 CNS): 657 nM
- TGI (SNB-75 CNS): > 39200 nM
- GI50 (OVCAR-5 ovarian): 1960 nM
- TGI (OVCAR-5 ovarian): > 100000 nM
- GI50 (MCF7 breast): 394 nM
- TGI (MCF7 breast): > 31600 nM
- GI50 (NCI-H522 lung): 3640 nM
- TGI (NCI-H522 lung): > 100000 nM
- GI50 (K-562 leukemia): 542 nM
- TGI (K-562 leukemia): > 100000 nM
- GI50 (NCI-H23 lung): 1860 nM
- TGI (NCI-H23 lung): > 100000 nM
- GI50 (TK-10 renal): > 67000 nM
- TGI (TK-10 renal): > 100000 nM
- GI50 (HCC-2998 colon): 2890 nM
- TGI (HCC-2998 colon): > 100000 nM
- GI50 (SNB-19 CNS): 1540 nM
- TGI (SNB-19 CNS): > 100000 nM
- GI50 (A498 renal): 303 nM
- TGI (A498 renal): 2550 nM
- GI50 (UO-31 renal): 2160 nM
- TGI (UO-31 renal): > 100000 nM
- GI50 (KM12 colon): 45200 nM
- TGI (KM12 colon): > 100000 nM
- GI50 (A549 NSCLC): 7010 nM
- TGI (A549 NSCLC): > 100000 nM
- GI50 (NCI-H226 lung): 1080 nM
- TGI (NCI-H226 lung): > 27000 nM
- GI50 (MALME-3M melanoma): 32300 nM
- TGI (MALME-3M melanoma): > 100000 nM
- GI50 (COLO 205 colon): 881 nM
- TGI (COLO 205 colon): > 100000 nM
- GI50 (UACC-257 melanoma): > 100000 nM
- TGI (UACC-257 melanoma): > 100000 nM
- GI50 (786-0 renal): 1680 nM
- TGI (786-0 renal): > 100000 nM
- GI50 (MOLT-4 leukemia): 324 nM
- TGI (MOLT-4 leukemia): 3050 nM
- GI50 (RPMI-8226 leukemia): 1730 nM
- TGI (RPMI-8226 leukemia): 5970 nM
- GI50 (PC-3 prostate): 217 nM
- TGI (PC-3 prostate): 874 nM
- GI50 (HS 578T breast): 1010 nM
- TGI (HS 578T breast): > 100000 nM
- GI50 (SW-620 colon): 552 nM
- TGI (SW-620 colon): > 100000 nM
- GI50 (U251 CNS): 40000 nM
- TGI (U251 CNS): > 100000 nM
- GI50 (LOX IMVI melanoma): 289 nM
- TGI (LOX IMVI melanoma): 2150 nM
- GI50 (SK-OV-3 ovarian): 3660 nM
- TGI (SK-OV-3 ovarian): > 100000 nM
- GI50 (HCT-15 colon): 550 nM
- TGI (HCT-15 colon): > 100000 nM
- GI50 (M14 melanoma): 17000 nM
- TGI (M14 melanoma): > 100000 nM
- GI50 (HOP-62 NSCLC): 1310 nM
- TGI (HOP-62 NSCLC): > 100000 nM
- GI50 (SR leukemia): 1060 nM
- TGI (SR leukemia): > 100000 nM
- GI50 (SK-MEL-28 melanoma): > 100000 nM
- TGI (SK-MEL-28 melanoma): > 100000 nM
- GI50 (SN12C renal): 590 nM
- TGI (SN12C renal): > 100000 nM
- GI50 (NCI/ADR-RES ovarian): 422 nM
- TGI (NCI/ADR-RES ovarian): 5030 nM
- GI50 (BT-549 breast): 522 nM
- TGI (BT-549 breast): 12200 nM
- GI50 (IGROV1 ovarian): 4860 nM
- TGI (IGROV1 ovarian): > 100000 nM
- GI50 (ACHN renal): 1740 nM
- TGI (ACHN renal): > 100000 nM
- GI50 (NCI-H460 lung): 4290 nM
- TGI (NCI-H460 lung): > 100000 nM
- GI50 (OVCAR-3 ovarian): 621 nM
- TGI (OVCAR-3 ovarian): > 75000 nM
